The values below come from paper PMC5050486 (Scientific Reports, 2016).

Where a name gives a salt, the structure may show the parent alone. Read-outs that look alike come from different tables or passages of the source. Where a SMILES comes first, the peptide text is derived from it. Where no end group is shown, it is not given here.

The conditions of series [1]: cited from earlier work.
A further series deals with cathepsin B (Homo sapiens, UniProt P07858). Put plainly: Host protease FRET test, cathepsin B. Type of series: biochemical. As to conditions: 33 μM drug, N/I = no FRET inhibition; for inhibition at 33 µM: read-out: Percent Inhibition with 33 μM of drug, Cath B.
The target of another series is T1, human furin (Homo sapiens, UniProt P09958).
T1 construct: purchased New England Biolabs
T1 sequence (P09958 108-794): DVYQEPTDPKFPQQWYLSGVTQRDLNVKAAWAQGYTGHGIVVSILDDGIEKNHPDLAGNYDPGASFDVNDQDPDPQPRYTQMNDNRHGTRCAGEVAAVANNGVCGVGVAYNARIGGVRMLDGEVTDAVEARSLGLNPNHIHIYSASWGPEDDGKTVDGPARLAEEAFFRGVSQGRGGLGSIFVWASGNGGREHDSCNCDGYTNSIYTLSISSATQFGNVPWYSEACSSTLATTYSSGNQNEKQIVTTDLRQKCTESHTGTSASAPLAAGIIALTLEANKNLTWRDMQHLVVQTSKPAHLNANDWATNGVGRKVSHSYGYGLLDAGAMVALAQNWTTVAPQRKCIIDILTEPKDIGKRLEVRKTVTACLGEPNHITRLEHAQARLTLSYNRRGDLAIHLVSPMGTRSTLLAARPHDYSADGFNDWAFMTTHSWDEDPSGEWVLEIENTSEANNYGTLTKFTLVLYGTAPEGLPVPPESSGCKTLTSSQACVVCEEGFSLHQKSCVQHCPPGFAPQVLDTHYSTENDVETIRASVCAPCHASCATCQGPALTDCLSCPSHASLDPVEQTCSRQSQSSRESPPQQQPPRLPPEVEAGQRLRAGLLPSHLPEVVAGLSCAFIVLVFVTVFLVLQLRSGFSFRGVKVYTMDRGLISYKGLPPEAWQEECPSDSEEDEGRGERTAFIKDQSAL
Kind of series: Host protease FRET test, furin. As to conditions: for inhibition at 33 µM: read-out: Percent Inhibition with 33 μM of drug, Furin. Type of series: biochemical.

Another series addresses T2, caspase-3 (Homo sapiens, UniProt P42574).
T2 construct: purchased BioVision
T2 sequence (P42574 29-277): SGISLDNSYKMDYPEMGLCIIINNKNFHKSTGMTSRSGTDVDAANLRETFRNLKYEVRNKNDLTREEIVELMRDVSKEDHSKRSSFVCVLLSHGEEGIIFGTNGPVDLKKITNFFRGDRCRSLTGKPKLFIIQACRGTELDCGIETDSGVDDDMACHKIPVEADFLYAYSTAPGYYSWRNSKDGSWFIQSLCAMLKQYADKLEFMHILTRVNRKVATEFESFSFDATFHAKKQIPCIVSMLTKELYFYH
Put plainly: Host protease FRET test, caspase-3. The format is biochemical. As to conditions: for inhibition at 33 µM: read-out: Percent Inhibition with 33 μM of drug, Casp 3.

The next series addresses T3, caspase-1 (Homo sapiens, UniProt P29466).
T3 construct: purchased BioVision
T3 sequence (P29466 120-404): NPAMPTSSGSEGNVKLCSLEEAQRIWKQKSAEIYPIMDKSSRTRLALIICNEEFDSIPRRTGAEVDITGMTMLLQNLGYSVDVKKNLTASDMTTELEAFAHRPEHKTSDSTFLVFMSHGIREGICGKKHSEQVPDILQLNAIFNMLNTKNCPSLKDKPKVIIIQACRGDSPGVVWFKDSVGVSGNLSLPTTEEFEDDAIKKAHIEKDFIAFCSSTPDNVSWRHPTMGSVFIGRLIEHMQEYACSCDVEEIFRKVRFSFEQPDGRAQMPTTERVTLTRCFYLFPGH
Kind of series: Host protease FRET test, caspase-1. Type of series: biochemical. As to conditions: read-out: Percent Inhibition with 33 μM of drug, Casp 1.

The target of a further series is anthrax LF (Bacillus anthracis, UniProt P15917). Put plainly: biochemical. As to conditions: for inhibition at 33 µM: read-out: Percent Inhibition with 33 μM of drug, LF.
anthrax LF, sequence (P15917 34-809 limits assumed): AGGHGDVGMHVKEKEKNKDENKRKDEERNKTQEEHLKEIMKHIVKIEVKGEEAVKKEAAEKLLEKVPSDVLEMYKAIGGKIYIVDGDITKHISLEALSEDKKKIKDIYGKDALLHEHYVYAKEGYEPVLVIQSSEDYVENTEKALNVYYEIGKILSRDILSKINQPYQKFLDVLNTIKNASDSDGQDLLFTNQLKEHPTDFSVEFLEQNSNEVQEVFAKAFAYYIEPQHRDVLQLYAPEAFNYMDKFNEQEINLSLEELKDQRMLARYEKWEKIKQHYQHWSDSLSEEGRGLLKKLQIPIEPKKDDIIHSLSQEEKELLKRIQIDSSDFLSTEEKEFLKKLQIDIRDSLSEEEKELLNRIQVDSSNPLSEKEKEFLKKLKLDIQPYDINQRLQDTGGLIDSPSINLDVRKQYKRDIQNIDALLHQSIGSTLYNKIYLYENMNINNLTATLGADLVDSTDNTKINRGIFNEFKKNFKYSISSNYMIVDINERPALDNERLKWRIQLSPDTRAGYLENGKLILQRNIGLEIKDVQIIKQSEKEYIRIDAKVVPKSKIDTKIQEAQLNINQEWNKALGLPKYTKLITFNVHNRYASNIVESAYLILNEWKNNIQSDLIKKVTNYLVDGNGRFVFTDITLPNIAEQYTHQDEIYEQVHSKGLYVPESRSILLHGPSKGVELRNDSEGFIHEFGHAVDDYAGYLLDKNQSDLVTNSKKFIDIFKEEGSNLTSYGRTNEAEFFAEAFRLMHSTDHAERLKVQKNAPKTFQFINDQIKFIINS
Series [2] deals with Pseudomonas aeruginosa exotoxin A treated RAW264.7 cells. The format is cell-based, mouse.
For series [3], the system named is Cholera toxin treated RAW264.7 cells. Type of series: cell-based, mouse.
Series [4] has as its system LF-PA treated mouse macrophage RAW264.7 cells. Type of series: cell-based.
Another series deals with T4, calpain 1 (Homo sapiens, UniProt P07384).
T4 construct: purchased BioVision
T4 sequence (P07384 1-714): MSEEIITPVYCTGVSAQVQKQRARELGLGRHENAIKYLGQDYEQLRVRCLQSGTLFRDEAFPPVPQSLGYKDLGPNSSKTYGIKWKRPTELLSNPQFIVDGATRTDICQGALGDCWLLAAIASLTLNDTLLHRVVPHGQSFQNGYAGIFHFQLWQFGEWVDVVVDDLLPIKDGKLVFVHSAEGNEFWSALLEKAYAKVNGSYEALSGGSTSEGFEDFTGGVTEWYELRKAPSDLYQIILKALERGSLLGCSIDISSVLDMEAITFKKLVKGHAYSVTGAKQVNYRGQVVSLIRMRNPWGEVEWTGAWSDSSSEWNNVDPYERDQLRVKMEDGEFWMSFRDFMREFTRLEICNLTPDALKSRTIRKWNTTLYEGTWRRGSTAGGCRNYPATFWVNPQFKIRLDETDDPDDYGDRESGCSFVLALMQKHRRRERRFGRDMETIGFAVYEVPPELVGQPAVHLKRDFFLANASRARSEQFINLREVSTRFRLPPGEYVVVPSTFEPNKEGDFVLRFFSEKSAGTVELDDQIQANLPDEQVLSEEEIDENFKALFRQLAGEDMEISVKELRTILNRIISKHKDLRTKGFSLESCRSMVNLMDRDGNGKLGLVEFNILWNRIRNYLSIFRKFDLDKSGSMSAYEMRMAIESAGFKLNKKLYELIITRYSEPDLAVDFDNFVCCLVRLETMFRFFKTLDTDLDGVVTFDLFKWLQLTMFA
T4 sequence (P04632 1-268 partner): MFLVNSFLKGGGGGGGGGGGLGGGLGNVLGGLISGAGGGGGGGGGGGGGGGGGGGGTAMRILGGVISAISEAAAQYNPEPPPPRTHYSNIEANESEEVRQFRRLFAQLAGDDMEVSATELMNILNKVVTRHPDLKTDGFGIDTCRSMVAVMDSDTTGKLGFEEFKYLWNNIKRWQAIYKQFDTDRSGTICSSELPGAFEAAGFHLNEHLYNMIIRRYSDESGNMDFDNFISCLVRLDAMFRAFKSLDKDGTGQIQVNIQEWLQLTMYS
Kind of series: Host protease FRET test, calpain. As to conditions: for inhibition at 33 µM: read-out: Percent Inhibition with 33 μM of drug, Calpain. The format is biochemical.

The mark [5] stands for this setting: 33 μM drug, FRET, N/I = no FRET inhibition.

As for `CCCCCCCCCCCCCCCC(=O)OC[C@H](O)[C@H]1OC(=O)C(O)=C1O` [Ascorbic acid 6-palmitate], the “Critical Micelle Concentration (CMC)” value in series [1] is 0.8 mM. Besides, the “Percent Inhibition with 33 μM of drug, Cath B” value (“Percent Inhibition … Cath B” below) at cathepsin B is on record as “N/I”. Further, the inhibition at 33 µM at human furin (setting [5]) was found to be 16 ± 0.67%; at caspase-3 (setting [5]), 88 ± 2.9%; at caspase-1 (setting [5]), 18 ± 1.12%; at anthrax LF, 99 ± 1.9%; on calpain 1 (setting [5]), 24 ± 19.4%. This compound also yielded an IC50 on anthrax LF of 460 ± 260 nM. For the same compound, the “Protection against PE-mediated cell killing” value in series [2] is “substantial protection”. Also, the “Protection against CT-mediated cell killing” value in series [3] is on record as “substantial protection”. Besides, the “Protection against LF-PA mediated cell killing” value in series [4] is recorded as “complete protection”.

For the compound `CCOc1nc2cccc(C(=O)OC(C)OC(=O)OC3CCCCC3)c2n1Cc1ccc(-c2ccccc2-c2nnn[nH]2)cc1` (centres unmarked) [Candesartan cilexetil], the inhibition at 33 µM worked out at 10 ± 3.1% on cathepsin B, 88 ± 0.12% at human furin (setting [5]), 16 ± 0.1% on caspase-1 (setting [5]) and 100 ± 0.07% on anthrax LF. Besides, the “Percent Inhibition with 33 μM of drug, Casp 3” value (shortened to “Percent Inhibition … Casp 3”) at caspase-3 (setting [5]) is “N/I”. The same compound returned an IC50 on anthrax LF of 400 ± 20 nM. Also, at calpain 1 (setting [5]), the “Percent Inhibition with 33 μM of drug, Calpain” value is listed as “N/I”.

Take `CCCCCCCCCCCCCCCC[N+](C)(C)Cc1ccccc1` [Cetalkonium chloride]: the “Percent Inhibition … Cath B” value at cathepsin B is “N/I”. Moreover, the inhibition at 33 µM on human furin (setting [5]) is 8 ± 6.1%; on caspase-1 (setting [5]), 32 ± 1.17%; on anthrax LF, 106 ± 1.21%; at calpain 1 (setting [5]) it was 68 ± 14.8%. Moreover, the “Percent Inhibition … Casp 3” value at caspase-3 (setting [5]) is “N/I”. This compound yielded an IC50 on anthrax LF of 160 ± 90 nM.

As to `CCCCC(CC)COC(=O)CC(C(=O)OCC(CC)CCCC)S(=O)(=O)O` (centres unmarked) [Docusate sodium], at cathepsin B, the “Percent Inhibition … Cath B” value was “N/I”. Also, the inhibition at 33 µM at human furin (setting [5]) was 69 ± 0.13%; at caspase-1 (setting [5]), 35 ± 0.01%; at anthrax LF, 95 ± 0.28%; on calpain 1 (setting [5]), 130 ± 0.19%. The “Percent Inhibition … Casp 3” value at caspase-3 (setting [5]) was “N/I”. This compound also came in with an IC50 at anthrax LF of 670 ± 50 nM.

Take `CCCCCCCCCCCC[N+](C)(C)CCOc1ccccc1` [Domiphen bromide]: the inhibition at 33 µM is 23 ± 1.5% at cathepsin B, 7 ± 6.64% on human furin (setting [5]), 17 ± 2.17% on caspase-1 (setting [5]) and 103 ± 0.82% at anthrax LF. The “Percent Inhibition … Casp 3” value on caspase-3 (setting [5]) is on record as “N/I”. Also, half-maximal inhibition on anthrax LF (IC50) was put at 290 ± 30 nM. Moreover, on calpain 1 (setting [5]), the “Percent Inhibition with 33 μM of drug, Calpain” value is on record as “N/I”.

With `CSCC[C@H](N)C(=O)N[C@@H](C)C(=O)N[C@@H](CCCNC(=N)N)C(=O)N[C@@H](Cc1ccc(O)cc1)C(=O)N[C@@H](CCCNC(=N)N)C(=O)N[C@@H](CS)C(=O)N[C@@H](CS)C(=O)N[C@@H](CCCNC(=N)N)C(=O)N[C@@H](CO)C(=O)N[C@@H](CCC(N)=O)C(=O)N[C@@H](CO)C(=O)N[C@@H](CCCNC(=N)N)C(=O)N[C@@H](CO)C(=O)N[C@@H](CCCNC(=N)N)C(=O)N[C@@H](Cc1ccc(O)cc1)C(=O)N[C@@H](Cc1ccc(O)cc1)C(=O)N[C@@H](CCCNC(=N)N)C(=O)O` [Human Sperm Protamine (1-17)] (H-MARYRCCRSQSRSRYYR-OH; N-terminus and C-terminus assumed), at anthrax LF, the inhibition at 33 µM turned out to be 37 ± 0.7%.

As for `CSCC[C@H](NC(=O)[C@H](C)NC(=O)[C@@H](N)CCCNC(=N)N)C(=O)N[C@@H](CCCNC(=N)N)C(=O)N[C@@H](CS)C(=O)N[C@@H](CS)C(=O)N[C@@H](CCCNC(=N)N)C(=O)N1CCC[C@H]1C(=O)N[C@@H](CCCNC(=N)N)C(=O)N[C@@H](Cc1ccc(O)cc1)C(=O)N[C@@H](CCCNC(=N)N)C(=O)N1CCC[C@H]1C(=O)N[C@@H](CCCNC(=N)N)C(=O)N[C@@H](CS)C(=O)N[C@@H](CCCNC(=N)N)C(=O)N[C@@H](CCCNC(=N)N)C(=O)N[C@@H](Cc1c[nH]cn1)C(=O)O` [Human Sperm Protamine (35-51)] (H-RAMRCCRPRYRPRCRRH-OH; N-terminus and C-terminus assumed), at anthrax LF, the inhibition at 33 µM came out at 55 ± 0.9%.

For `CCCCCCCCCCCCc1ccccc1S(=O)(=O)O` [Sodium dodecyl benzenesulfonate], the inhibition at 33 µM at cathepsin B amounted to 96 ± 2.5%; at human furin (setting [5]), 6 ± 3.34%; at caspase-3 (setting [5]), 77 ± 2.5%; on caspase-1 (setting [5]), 14 ± 2.06%; on anthrax LF, 104 ± 0.4%; at calpain 1 (setting [5]), 26 ± 7.01%. For the same compound, at anthrax LF (read-out: LF IC50), the IC50 was 590 ± 80 nM.

Consider `CCCCCCCCCCCCOS(=O)(=O)O` [Sodium lauryl sulfate], for which the “Critical Micelle Concentration (CMC)” value in series [1] was 8 mM. The inhibition at 33 µM at human furin was found to be 2 ± 4.56%; on caspase-3 it was 83 ± 2.7%; on caspase-1, 7 ± 3.06%; at anthrax LF, 93 ± 0.57%; at calpain 1, 95 ± 6.02%. The same compound displayed a half-maximal inhibitory concentration (IC50) against anthrax LF of 2900 ± 80 nM.

As to “MARYRCCRSQSRSRYYRQRQRSRRRRRRSCQTRRRAMRCCRPRYRPRCRRH (cysteines drawn unpaired) [Human Sperm Protamine (1-51)]”, the inhibition at 33 µM at human furin (setting [5]) stood at 97 ± 1.7%; at anthrax LF it was 88 ± 1.2%.

Consider “MPRRRRSSSR [Salmon Sperm Protamine (1-10)]”, for which the “Percent Inhibition with 33 μM of drug, Furin” value at human furin (setting [5]) was “N/I”. For the same compound, at anthrax LF, the midpoint of inhibition, the IC50, lay at 298000 ± 10 nM and the inhibition at 33 µM was found to be 28 ± 1%.

As for “MPRRRRSSSRPVRRRRRPRVSR [Salmon Sperm Protamine (1-22)]”, the inhibition at 33 µM at human furin (setting [5]) was 91 ± 1.8%. Besides, on anthrax LF, the IC50 was 1000 ± 40 nM and the inhibition at 33 µM is 98 ± 0.6%.

For “PVRRRRRPRVSR [Salmon Sperm Protamine (11-22)]”, at human furin (setting [5]), the inhibition at 33 µM was 84 ± 33%. Besides, at anthrax LF, the IC50 stood at 5000 ± 130 nM and the inhibition at 33 µM is 95 ± 0.1%.

For “PVRRRRRPRVSRRRRRRGGRRRR [Salmon Sperm Protamine (11-33)]”, the inhibition at 33 µM at human furin (setting [5]) is 86 ± 1.2%. For the same compound, on anthrax LF, inhibition was half-maximal at 10000 ± 40 nM (IC50) and the inhibition at 33 µM worked out at 99 ± 0.2%.

In the case of “QRQRSRRRRRRSCQTRR [Human Sperm Protamine (18-34)]”, at anthrax LF, half-maximal inhibition (IC50) required 24000 ± 150 nM and the inhibition at 33 µM came out at 72 ± 2.1%.

“RRRRRGGRRRR [Salmon Sperm Protamine (23-33)]”: the inhibition at 33 µM on human furin (setting [5]) came out at 150 ± 5.3%. At anthrax LF, half-maximal inhibition (IC50) was put at 15000 ± 10 nM and the inhibition at 33 µM turned out to be 93 ± 2.4%.

A word on the inhibition: it is the drop in the measured response relative to a control, in per cent. Broadly, the IC50 is the concentration at which inhibition is half-maximal.
